Source: patent US12679860B2, “C-terminal HSP90 inhibitors” (UNIVERSITY OF KANSAS, priority 2012, dated 2026)

Tests used:
[1] = test system: embryonic dorsal root ganglion (DRG) sensory neuron cultures; test: Glucotoxicity assay: cell viability (calcein AM) of DRG sensory neurons under glucose-induced toxicity; assay type: cell-based, Sprague Dawley rat; conditions: for viability at 1 µM / EC50: Rattus norvegicus, Neuron; for viability at 1 µM: glucose + DMSO was 54% ± 2; for EC50: 0.1-1000 nM novologue overnight, then 4 hrs of hyperglycemia, mean±SEM (n=3-8), read-out: EC50 for protection against glucose-induced toxicity
Procedure: DRG sensory neurons were incubated in the absence or presence of 0.1-1000 nM of the indicated novologue overnight and then subjected to 4 hrs of hyperglycemia.
The ganglia were sedimented at 1,000×g for 5 min, resuspended in growth media [phenol red free Neurobasal medium (Gibco, Grand Island, NY) containing 25 mM glucose, 1X B-27 additive, 50 ng/ml NGF (Harlan Bioscience, Indianapolis, IN), 4 mM glutamine, 100 U/mL penicillin and 100 μg/mL streptomycin] and triturated with a fire-polished glass pipette. The cells were cultured on collagen-coated (0.1 mg/mL collagen followed by overnight air drying in a laminar flow hood) black-walled 96-well plates (Corning Incorporated Corning, NY) at a seeding density of 2-3×10^4 cells per well. DRG neurons were re-fed the next day with fresh growth media containing 40 μM fluorodeoxyuridine and 10 μM cytosine β-D-arabinoside (both from Sigma Aldrich, St. Louis, MO) for 2 days to remove proliferating cells. Experiments were performed on DRG neurons on the third day in culture after placing the cells in fresh growth medium. […]
DRG neurons were incubated overnight with the test compounds in the presence of Neurobasal medium, 50 ng/ml NGF and antibiotics only. In order to monitor the efficiency of the compounds in protecting DRG neurons against glucotoxicity, Calcein AM (Invitrogen, Carlsbad, CA) was utilized to measure cell viability. Hydrolysis of calcein AM to a fluorescent product can only occur in live cells. Excess glucose was added to the cultures for 4 hrs and cell viability was measured by incubating the cells with 2 μM calcein AM for 30 min in the dark at 37° C. Fluorescence was then measured using a plate reader with excitation and emission wavelengths set to 485 nm and 520 nm, respectively. The arbitrary fluorescence readings were normalized to the total amount of protein from each respective well of the neuronal cultures. The protein concentrations in each well were determined using the DC protein assay (Bio-Rad). Significant differences in the efficacy of the novologues for increasing cell viability were determined using a Kruskal-Wallis non-parametric ANOVA and Dunn's post-test.

[2] = test system: Hsp70; test: Immunoblot analysis of induction of Hsp70 in DRG sensory neurons; assay type: cell-based, Sprague Dawley rat; conditions: 24 hours incubation, then 4 hours of glucotoxic stress; Hsp70 normalized to β-actin
Procedure: DRG sensory neurons were incubated in the presence of DMSO (Cntrl) or 10-1000 nM of the indicated novologue overnight and then subjected to 4 hrs of hyperglycemia. The neurons were harvested and Hsp70 and β-actin levels were determined by immunoblot analysis. Band intensity was quantified using Image J, Hsp70 expression was normalized to the level of β-actin.
Since it was previously shown that the cytoprotective activity manifested by KU-32 requires Hsp70, the ability of 11b and 11n to induce Hsp70 was determined relative to KU-32. Increasing concentrations of KU-32, 11n, and 11b were incubated with DRG sensory neurons for 24 hours before the cells were subjected to 4 hours of glucotoxic stress. Hsp70 levels were examined by performing immunoblot analysis with the cellular lysates (FIG. 5). 11n and 11b induced Hsp70 levels at similar concentrations (10 nM) as those needed for neuroprotection.
DRG from embryonic day 15-18 Sprague Dawley rat pups were harvested into Leibovitz's L15 medium (L15) and dissociated with 0.25% trypsin for 30 min at 37° C. […]

[3] = Table 2 cyclohexene analogues, 1 μM novologue + 20 mM excess glucose
[4] = Table 1, 1 μM of each novologue + 20 mM excess glucose
[5] = 1 μM novologue + 20 mM excess glucose

For `CO[C@@H]1[C@@H](O)[C@@H](O)[C@H](Oc2ccc(C3CC=CCC3NC(C)=O)c(-c3cccc(F)c3)c2)OC1(C)C` (mixture of isomers) [20a, N-(4′-(((3R,4S,5R)-3,4-dihydroxy-5-methoxy-6,6-dimethyltetrahydro-2H-pyran-2-yl)oxy)-3″-fluoro-1,2,3,6-tetrahydro-[1,1′: 2′,1″-terphenyl]-2-yl)acetamide], the viability at 1 µM [1, 3] was 78%.
Work on `CO[C@@H]1[C@@H](O)[C@@H](O)[C@H](Oc2ccc(C3CC=CCC3NC(C)=O)c(-c3cccc(C(F)(F)F)c3)c2)OC1(C)C` (mixture of isomers) [20b, N-(4′-(((3R,4S,5R)-3,4-dihydroxy-5-methoxy-6,6-dimethyltetrahydro-2H-pyran-2-yl)oxy)-3″-(trifluoromethyl)-1,2,3,6-tetrahydro-[1,1′: 2′,1″-terphenyl]-2-yl) acetamide] yielded a viability at 1 µM [1, 3] of 69%.
Work on `CO[C@@H]1[C@@H](O)[C@@H](O)C(Oc2ccc(CCNC(C)=O)c(-c3ccccc3)c2)OC1(C)C` (stereo partly drawn) [11a, N-(2-(5-(((3R,4S,5R)-3,4-dihydroxy-5-methoxy-6,6-dimethyltetrahydro-2H-pyran-2-yl)oxy)-[1,1′-biphenyl]-2-yl)ethyl)acetamide] yielded a viability at 1 µM [1, 4] of 76%.
`CO[C@@H]1[C@@H](O)[C@@H](O)C(Oc2ccc(CCNC(C)=O)c(-c3cccc(F)c3)c2)OC1(C)C` (stereo partly drawn) [11b, N-(2-(5-(((3R,4S,5R)-3,4-dihydroxy-5-methoxy-6,6-dimethyltetrahydro-2H-pyran-2-yl)oxy)-3′-fluoro-[1,1′-biphenyl]-2-yl)ethyl)acetamide] was tested, and the “protection against glucose-induced toxicity (in words)” value (from here on “protection”) [1, 5] was “showed significant protection against glucotoxicity”, the EC50 [1] was 13 ± 3.6 nM and the viability at 1 µM [1, 4] was 95%. For the same molecule, the “concentration at which Hsp70 levels were induced” value [2] was 10 nM.
`CO[C@@H]1[C@@H](O)[C@@H](O)C(Oc2ccc(CCNC(C)=O)c(-c3ccc(F)cc3)c2)OC1(C)C` (stereo partly drawn) [11c, N-(2-(5-(((3R,4S,5R)-3,4-dihydroxy-5-methoxy-6,6-dimethyltetrahydro-2H-pyran-2-yl)oxy)-4′-fluoro-[1,1′-biphenyl]-2-yl)ethyl)acetamide] was tested, and the “protection” value [1, 5] was “showed significant protection against glucose-induced cell death” and the viability at 1 µM [1, 4] was 75%.
In the case of `CO[C@@H]1[C@@H](O)[C@@H](O)C(Oc2ccc(CCNC(C)=O)c(-c3ccccc3Cl)c2)OC1(C)C` (stereo partly drawn) [11d, N-(2-(2′-chloro-5-(((3R,4S,5R)-3,4-dihydroxy-5-methoxy-6,6-dimethyltetrahydro-2H-pyran-2-yl)oxy)-[1,1′-biphenyl]-2-yl)ethyl)acetamide], the “protection” value [1, 5] is reported as “showed significant protection against glucose-induced cell death” and the viability at 1 µM [1, 4] is reported as 71%.
For `CO[C@@H]1[C@@H](O)[C@@H](O)C(Oc2ccc(CCNC(C)=O)c(-c3cccc(Cl)c3)c2)OC1(C)C` (stereo partly drawn) [11e, N-(2-(3′-chloro-5-(((3R,4S,5R)-3,4-dihydroxy-5-methoxy-6,6-dimethyltetrahydro-2H-pyran-2-yl)oxy)-[1,1′-biphenyl]-2-yl)ethyl)acetamide], the “protection” value [1, 5] was “showed significant protection against glucotoxicity” and the viability at 1 µM [1, 4] was 90%.
With `CO[C@@H]1[C@@H](O)[C@@H](O)C(Oc2ccc(CCNC(C)=O)c(-c3cccc(C(F)(F)F)c3)c2)OC1(C)C` (stereo partly drawn) [11f, N-(2-(5-(((3R,4S,5R)-3,4-dihydroxy-5-methoxy-6,6-dimethyltetrahydro-2H-pyran-2-yl)oxy)-3′-(trifluoromethyl)-[1,1′-biphenyl]-2-yl)ethyl)acetamide] the “protection” value [1, 5] was “showed significant protection against glucotoxicity”, the EC50 [1] was 188 ± 43.5 nM and the viability at 1 µM [1, 4] was 83%.
With `CO[C@@H]1[C@@H](O)[C@@H](O)C(Oc2ccc(CCNC(C)=O)c(-c3ccc(C(F)(F)F)cc3)c2)OC1(C)C` (stereo partly drawn) [11g, N-(2-(5-(((3R,4S,5R)-3,4-dihydroxy-5-methoxy-6,6-dimethyltetrahydro-2H-pyran-2-yl)oxy)-4′-(trifluoromethyl)-[1,1′-biphenyl]-2-yl)ethyl)acetamide] the “protection” value [1, 5] was “showed significant protection against glucose-induced cell death” and the viability at 1 µM [1, 4] was 74%.
With `CO[C@@H]1[C@@H](O)[C@@H](O)C(Oc2ccc(CCNC(C)=O)c(-c3ccccc3SC)c2)OC1(C)C` (stereo partly drawn) [11h, N-(2-(5-(((3R,4S,5R)-3,4-dihydroxy-5-methoxy-6,6-dimethyltetrahydro-2H-pyran-2-yl)oxy)-2′-(methylthio)-[1,1′-biphenyl]-2-yl)ethyl)acetamide] the EC50 [1] was 384 ± 108 nM, the viability at 1 µM [1, 4] was 83% and the “EC50 fold greater than KU-32” value ([1]; protection against glucose-induced toxicity) was “approximately 1.6 fold”.
In the case of `COc1ccccc1-c1cc(OC2OC(C)(C)[C@H](OC)[C@@H](O)[C@H]2O)ccc1CCNC(C)=O` (stereo partly drawn) [11i, N-(2-(5-(((3R,4S,5R)-3,4-dihydroxy-5-methoxy-6,6-dimethyltetrahydro-2H-pyran-2-yl)oxy)-2′-methoxy-[1,1′-biphenyl]-2-yl)ethyl)acetamide], the viability at 1 µM [1, 4] is reported as 92%.
Work on `COc1cccc(-c2cc(OC3OC(C)(C)[C@H](OC)[C@@H](O)[C@H]3O)ccc2CCNC(C)=O)c1` (stereo partly drawn) [11j, N-(2-(5-(((3R,4S,5R)-3,4-dihydroxy-5-methoxy-6,6-dimethyltetrahydro-2H-pyran-2-yl)oxy)-3′-methoxy-[1,1′-biphenyl]-2-yl)ethyl)acetamide] yielded a viability at 1 µM [1, 4] of 78%.
For `CO[C@@H]1[C@@H](O)[C@@H](O)C(Oc2ccc(CCNC(C)=O)c(-c3cccc(C)c3)c2)OC1(C)C` (stereo partly drawn) [11k, N-(2-(5-(((3R,4S,5R)-3,4-dihydroxy-5-methoxy-6,6-dimethyltetrahydro-2H-pyran-2-yl)oxy)-3′-methyl-[1,1′-biphenyl]-2-yl)ethyl)acetamide], the viability at 1 µM [1, 4] was 82%.
In the case of `CO[C@@H]1[C@@H](O)[C@@H](O)C(Oc2ccc(CCNC(C)=O)c(-c3cccc(CN4CCOCC4)c3)c2)OC1(C)C` (stereo partly drawn) [11l, N-(2-(5-(((3R,4S,5R)-3,4-dihydroxy-5-methoxy-6,6-dimethyltetrahydro-2H-pyran-2-yl)oxy)-3′-(morpholinomethyl)-[1,1′-biphenyl]-2-yl)ethyl)acetamide], the viability at 1 µM [1, 4] is reported as 83%.
Work on `CO[C@@H]1[C@@H](O)[C@@H](O)C(Oc2ccc(CCNC(C)=O)c(-c3ccc(O)cc3)c2)OC1(C)C` (stereo partly drawn) [11m, N-(2-(5-(((3R,4S,5R)-3,4-dihydroxy-5-methoxy-6,6-dimethyltetrahydro-2H-pyran-2-yl)oxy)-4′-hydroxy-[1,1′-biphenyl]-2-yl)ethyl)acetamide] yielded a viability at 1 µM [1, 4] of 67%.
With `CO[C@@H]1[C@@H](O)[C@@H](O)C(Oc2ccc(CCNC(C)=O)c(-c3cccnc3)c2)OC1(C)C` (stereo partly drawn) [11o, N-(4-(((3R,4S,5R)-3,4-dihydroxy-5-methoxy-6,6-dimethyltetrahydro-2H-pyran-2-yl)oxy)-2-(pyridin-3-yl)phenethyl)acetamide] the “protection” value [1, 5] was “unable to protect against glucose-induce toxicity” and the viability at 1 µM [1, 4] was 61%.
`CO[C@@H]1[C@@H](O)[C@@H](O)C(Oc2ccc(CCNC(C)=O)c(-c3ccncc3)c2)OC1(C)C` (stereo partly drawn) [11p, N-(4-(((3R,4S,5R)-3,4-dihydroxy-5-methoxy-6,6-dimethyltetrahydro-2H-pyran-2-yl)oxy)-2-(pyridin-4-yl)phenethyl)acetamide] gave a viability at 1 µM [1, 4] of 81%.
